Legend:
[1] = system: CHEAL (Chenopodium album); assay: Postemergence herbicidal evaluation; format: in vivo, L.; conditions: for CHEAL herbicidal rating: postemergence
How it was run: (§1)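 Seedlings grown for about two weeks were sprayed postemergence and then kept under standard greenhouse care. Injury was rated visually 4–5 weeks after treatment on a 0–9 scale against untreated controls, and ratings from repeat tests were averaged.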

[2] = system: CASOB (Cassia obtusifolia); assay: Postemergence herbicidal evaluation; format: in vivo, L.; conditions: for CASOB herbicidal rating: postemergence
How it was run: as §1

[3] = system: AMBEL (Ambrosia artemisifolia); assay: Postemergence herbicidal evaluation; format: in vivo, L.; conditions: for AMBEL herbicidal rating: postemergence
How it was run: as §1

[4] = system: GLXMAW (Soybean, Williams); assay: Preemergence herbicidal evaluation; format: in vivo, Glycine max, (L.) Merr. cv Williams; conditions: rated 4-5 weeks after treatment
CYPIR (Cyperus iria) = assay: Flooded paddy, preemergence weed control; format: in vivo; conditions: rated 3-4 weeks after treatment, 0-9 rating scale
How it was run: (§2)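 Scoring used a 0-9 visual scale relative to control. Before that, seeds or propagules were planted shallowly in silt loam and flooded to 1.5–3 cm, a depth maintained throughout, with greenhouse care during the test.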

[5] = system: ABUTH (Abutilon theophrasti); assay: Postemergence herbicidal evaluation; format: in vivo, Medic.; conditions: for ABUTH herbicidal rating: postemergence
How it was run: as §1

[6] = system: SAGPY (Sagittaria pygmaea); assay: Flooded paddy, preemergence weed control; format: in vivo, L.; conditions: rated 3-4 weeks after treatment, 0-9 rating scale
How it was run: as §2

[7] = system: IPOHE (Ipomoea hederacea); assay: Preemergence herbicidal evaluation; format: in vivo, (L.) Jacq.; conditions: rated 4-5 weeks after treatment
ORYSAT (Rice, Tebonnet) = assay: Flooded paddy, post-transplant rice tolerance; format: in vivo, Oryza sativa, (L.) Tebonnet; conditions: flooded paddy, post-transplant rice, rated 3-4 weeks after treatment, 0-9 rating scale
How it was run: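 Two ten-day-old Tebonnet rice seedlings transplanted into silt loam, then flooded with water held at 1.5–3 cm above soil; herbicide applied post-transplant. Plants kept in greenhouse and rated visually 0–9 versus untreated control for stand, vigor, malformation, size and chlorosis.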

GALAP (Galium aparine) = assay: Postemergence herbicidal evaluation; format: in vivo; conditions: for GALAP herbicidal rating: postemergence
How it was run: as §1

ZEAMX (Corn, Field) = assay: Preemergence herbicidal evaluation; format: in vivo, Zea mays, L.; conditions: rated 4-5 weeks after treatment

## Cc1cccnc1-c1nsc2cc(F)c(N3C(=O)C4=C(CCCC4)C3=O)cc12 [Compound 46, N-[6-fluoro-3-(3-methyl-2-pyridyl)-1,2-benzisothiazol-5-yl]-1-cyclohexene-1,2-dicarboximide]
[1]; rate 0.0320 kg/ha
  Postemergence herbicidal rating, CHEAL: 6.0
[1]; rate 0.0620 kg/ha
  Postemergence herbicidal rating, CHEAL: 9.0
[1]; rate 0.1250 kg/ha
  Postemergence herbicidal rating, CHEAL: 9.0
[2]; rate 0.0320 kg/ha
  Postemergence herbicidal rating, CASOB: 7.0
[2]; rate 0.0620 kg/ha
  Postemergence herbicidal rating, CASOB: 9.0
[2]; rate 0.1250 kg/ha
  Postemergence herbicidal rating, CASOB: 9.0
[3]; rate 0.0320 kg/ha
  Postemergence herbicidal rating, AMBEL: 7.0
[3]; rate 0.0620 kg/ha
  Postemergence herbicidal rating, AMBEL: 9.0
[3]; rate 0.1250 kg/ha
  Postemergence herbicidal rating, AMBEL: 9.0
[4]; Rate 0.0620 kg/ha
  Preemergence herbicidal rating GLXMAW: 0.0
[4]; Rate 0.1250 kg/ha
  Preemergence herbicidal rating GLXMAW: 1.0
[4]; Rate 0.2500 kg/ha
  Preemergence herbicidal rating GLXMAW: 2.0
CYPIR (Cyperus iria); rate 0.0320 kg/ha
  herbicidal rating, CYPIR: 1.0
CYPIR (Cyperus iria); rate 0.1250 kg/ha
  herbicidal rating, CYPIR: 3.0
[5]; rate 0.0320 kg/ha
  Postemergence herbicidal rating, ABUTH: 9.0
[5]; rate 0.0620 kg/ha
  Postemergence herbicidal rating, ABUTH: 9.0
[5]; rate 0.1250 kg/ha
  Postemergence herbicidal rating, ABUTH: 9.0
[6]; rate 0.0320 kg/ha
  herbicidal rating, SAGPY: 0.0
[6]; rate 0.1250 kg/ha
  herbicidal rating, SAGPY: 2.0
[7]; Rate 0.0620 kg/ha
  Preemergence herbicidal rating IPOHE: 0.0
[7]; Rate 0.1250 kg/ha
  Preemergence herbicidal rating IPOHE: 2.0
[7]; Rate 0.2500 kg/ha
  Preemergence herbicidal rating IPOHE: 9.0
ORYSAT (Rice, Tebonnet); rate 0.0320 kg/ha
  herbicidal rating, ORYSAT (rice tolerance): 2.0
ORYSAT (Rice, Tebonnet); rate 0.1250 kg/ha
  herbicidal rating, ORYSAT (rice tolerance): 3.0
GALAP (Galium aparine); rate 0.0320 kg/ha
  Postemergence herbicidal rating, GALAP: 4.0
GALAP (Galium aparine); rate 0.0620 kg/ha
  Postemergence herbicidal rating, GALAP: 6.0
GALAP (Galium aparine); rate 0.1250 kg/ha
  Postemergence herbicidal rating, GALAP: 5.0
ZEAMX (Corn, Field); Rate 0.0620 kg/ha
  Preemergence herbicidal rating ZEAMX: 0.0
ZEAMX (Corn, Field); Rate 0.1250 kg/ha
  Preemergence herbicidal rating ZEAMX: 0.0
ZEAMX (Corn, Field); Rate 0.2500 kg/ha
  Preemergence herbicidal rating ZEAMX: 0.0

## C[C@@H]1OC(c2nsc3ccc(-n4c(=O)cc(C(F)(F)F)n(C)c4=O)cc23)O[C@@H]1C (stereo partly drawn) [Compound 47, 3-[3-[(4R,5S)-4,5-dimethyl-1,3-dioxolan-2-yl]-1,2-benzisothiazol-5-yl]-1-methyl-6-(trifluoromethyl)uracil]
[1]; rate 0.0320 kg/ha
  Postemergence herbicidal rating, CHEAL: 9.0
[1]; rate 0.0620 kg/ha
  Postemergence herbicidal rating, CHEAL: 9.0
[2]; rate 0.0320 kg/ha
  Postemergence herbicidal rating, CASOB: 6.0
[2]; rate 0.0620 kg/ha
  Postemergence herbicidal rating, CASOB: 9.0
[3]; rate 0.0320 kg/ha
  Postemergence herbicidal rating, AMBEL: 9.0
[3]; rate 0.0620 kg/ha
  Postemergence herbicidal rating, AMBEL: 9.0
[4]; Rate 0.0620 kg/ha
  Preemergence herbicidal rating GLXMAW: 7.0
[4]; Rate 0.1250 kg/ha
  Preemergence herbicidal rating GLXMAW: 8.0
[4]; Rate 0.2500 kg/ha
  Preemergence herbicidal rating GLXMAW: 9.0
CYPIR (Cyperus iria); rate 0.0080 kg/ha
  herbicidal rating, CYPIR: 0.0
CYPIR (Cyperus iria); rate 0.0320 kg/ha
  herbicidal rating, CYPIR: 8.5
CYPIR (Cyperus iria); rate 0.1250 kg/ha
  herbicidal rating, CYPIR: 9.0
[5]; rate 0.0320 kg/ha
  Postemergence herbicidal rating, ABUTH: 9.0
[5]; rate 0.0620 kg/ha
  Postemergence herbicidal rating, ABUTH: 9.0
[6]; rate 0.0080 kg/ha
  herbicidal rating, SAGPY: 0.0
[6]; rate 0.0320 kg/ha
  herbicidal rating, SAGPY: 7.5
[6]; rate 0.1250 kg/ha
  herbicidal rating, SAGPY: 9.0
[7]; Rate 0.0620 kg/ha
  Preemergence herbicidal rating IPOHE: 7.5
[7]; Rate 0.1250 kg/ha
  Preemergence herbicidal rating IPOHE: 8.0
[7]; Rate 0.2500 kg/ha
  Preemergence herbicidal rating IPOHE: 9.0
ORYSAT (Rice, Tebonnet); rate 0.0080 kg/ha
  herbicidal rating, ORYSAT (rice tolerance): 3.0
ORYSAT (Rice, Tebonnet); rate 0.0320 kg/ha
  herbicidal rating, ORYSAT (rice tolerance): 7.5
ORYSAT (Rice, Tebonnet); rate 0.1250 kg/ha
  herbicidal rating, ORYSAT (rice tolerance): 9.0
GALAP (Galium aparine); rate 0.0320 kg/ha
  Postemergence herbicidal rating, GALAP: 9.0
GALAP (Galium aparine); rate 0.0620 kg/ha
  Postemergence herbicidal rating, GALAP: 9.0
ZEAMX (Corn, Field); Rate 0.0620 kg/ha
  Preemergence herbicidal rating ZEAMX: 7.5
ZEAMX (Corn, Field); Rate 0.1250 kg/ha
  Preemergence herbicidal rating ZEAMX: 8.0
ZEAMX (Corn, Field); Rate 0.2500 kg/ha
  Preemergence herbicidal rating ZEAMX: 9.0

## C[C@H]1OC(c2nsc3ccc(-n4c(=O)cc(C(F)(F)F)n(C)c4=O)cc23)O[C@@H]1C [Compound 48, 3-[3-[(4R,5R)-4,5-dimethyl-1,3-dioxolan-2-yl]-1,2-benzisothiazol-5-yl]-1-methyl-6-(trifluoromethyl)uracil]
[1]; rate 0.0320 kg/ha
  Postemergence herbicidal rating, CHEAL: 9.0
[1]; rate 0.0620 kg/ha
  Postemergence herbicidal rating, CHEAL: 9.0
[2]; rate 0.0320 kg/ha
  Postemergence herbicidal rating, CASOB: 1.0
[2]; rate 0.0620 kg/ha
  Postemergence herbicidal rating, CASOB: 7.0
[3]; rate 0.0320 kg/ha
  Postemergence herbicidal rating, AMBEL: 9.0
[3]; rate 0.0620 kg/ha
  Postemergence herbicidal rating, AMBEL: 9.0
[4]; Rate 0.0620 kg/ha
  Preemergence herbicidal rating GLXMAW: 9.0
[4]; Rate 0.1250 kg/ha
  Preemergence herbicidal rating GLXMAW: 9.0
[4]; Rate 0.2500 kg/ha
  Preemergence herbicidal rating GLXMAW: 9.0
CYPIR (Cyperus iria); rate 0.0080 kg/ha
  herbicidal rating, CYPIR: 0.0
CYPIR (Cyperus iria); rate 0.0320 kg/ha
  herbicidal rating, CYPIR: 8.0
CYPIR (Cyperus iria); rate 0.1250 kg/ha
  herbicidal rating, CYPIR: 9.0
[5]; rate 0.0320 kg/ha
  Postemergence herbicidal rating, ABUTH: 9.0
[5]; rate 0.0620 kg/ha
  Postemergence herbicidal rating, ABUTH: 9.0
[6]; rate 0.0080 kg/ha
  herbicidal rating, SAGPY: 0.0
[6]; rate 0.0320 kg/ha
  herbicidal rating, SAGPY: 7.5
[6]; rate 0.1250 kg/ha
  herbicidal rating, SAGPY: 9.0
[7]; Rate 0.0620 kg/ha
  Preemergence herbicidal rating IPOHE: 8.0
[7]; Rate 0.1250 kg/ha
  Preemergence herbicidal rating IPOHE: 8.5
[7]; Rate 0.2500 kg/ha
  Preemergence herbicidal rating IPOHE: 9.0
ORYSAT (Rice, Tebonnet); rate 0.0080 kg/ha
  herbicidal rating, ORYSAT (rice tolerance): 5.0
ORYSAT (Rice, Tebonnet); rate 0.0320 kg/ha
  herbicidal rating, ORYSAT (rice tolerance): 8.0
ORYSAT (Rice, Tebonnet); rate 0.1250 kg/ha
  herbicidal rating, ORYSAT (rice tolerance): 9.0
GALAP (Galium aparine); rate 0.0320 kg/ha
  Postemergence herbicidal rating, GALAP: 9.0
GALAP (Galium aparine); rate 0.0620 kg/ha
  Postemergence herbicidal rating, GALAP: 9.0
ZEAMX (Corn, Field); Rate 0.0620 kg/ha
  Preemergence herbicidal rating ZEAMX: 7.5
ZEAMX (Corn, Field); Rate 0.1250 kg/ha
  Preemergence herbicidal rating ZEAMX: 8.0
ZEAMX (Corn, Field); Rate 0.2500 kg/ha
  Preemergence herbicidal rating ZEAMX: 9.0

## Cc1nn(-c2nsc3ccc(-n4c(=O)cc(C(F)(F)F)n(C)c4=O)cc23)c(C)c1C [Compound 49, 1-methyl-6-(trifluoromethyl)-3-[3-(3,4,5-trimethylpyrazol-1-yl)-1,2-benzisothiazol-5-yl]uracil]
[1]; rate 0.0320 kg/ha
  CHEAL herbicidal rating: 0.0
[1]; rate 0.0620 kg/ha
  CHEAL herbicidal rating: 0.0
[2]; rate 0.0320 kg/ha
  CASOB herbicidal rating: 0.0
[2]; rate 0.0620 kg/ha
  CASOB herbicidal rating: 0.0
[3]; rate 0.0320 kg/ha
  AMBEL herbicidal rating: 0.0
[3]; rate 0.0620 kg/ha
  AMBEL herbicidal rating: 0.0
[4]; Rate 0.0620 kg/ha
  Preemergence herbicidal rating GLXMAW: 0.0
[4]; Rate 0.1250 kg/ha
  Preemergence herbicidal rating GLXMAW: 0.0
[4]; Rate 0.2500 kg/ha
  Preemergence herbicidal rating GLXMAW: 0.0
CYPIR (Cyperus iria); rate 0.0320 kg/ha
  herbicidal rating, CYPIR: 0.0
CYPIR (Cyperus iria); rate 0.1250 kg/ha
  herbicidal rating, CYPIR: 0.0
[5]; rate 0.0320 kg/ha
  ABUTH herbicidal rating: 0.0
[5]; rate 0.0620 kg/ha
  ABUTH herbicidal rating: 0.0
[6]; rate 0.0320 kg/ha
  herbicidal rating, SAGPY: 0.0
[6]; rate 0.1250 kg/ha
  herbicidal rating, SAGPY: 0.0
[7]; Rate 0.0620 kg/ha
  Preemergence herbicidal rating IPOHE: 0.0
[7]; Rate 0.1250 kg/ha
  Preemergence herbicidal rating IPOHE: 0.0
[7]; Rate 0.2500 kg/ha
  Preemergence herbicidal rating IPOHE: 0.0
ORYSAT (Rice, Tebonnet); rate 0.0320 kg/ha
  herbicidal rating, ORYSAT (rice tolerance): 0.0
ORYSAT (Rice, Tebonnet); rate 0.1250 kg/ha
  herbicidal rating, ORYSAT (rice tolerance): 0.0
GALAP (Galium aparine); rate 0.0320 kg/ha
  GALAP herbicidal rating: 0.0
GALAP (Galium aparine); rate 0.0620 kg/ha
  GALAP herbicidal rating: 0.0
ZEAMX (Corn, Field); Rate 0.0620 kg/ha
  Preemergence herbicidal rating ZEAMX: 0.0
ZEAMX (Corn, Field); Rate 0.1250 kg/ha
  Preemergence herbicidal rating ZEAMX: 0.0
ZEAMX (Corn, Field); Rate 0.2500 kg/ha
  Preemergence herbicidal rating ZEAMX: 0.0
